Assay results published in US11773078B2, “Furin inhibitors” (Glaxosmithkline Intellectual Property Development Limited, priority 2018, dated 2023).
Structures can show the parent of a compound that is named as a salt.

Key:
[1] = biological target: T1, Furin (108-574-Tev-Flag-His) enzyme (Homo sapiens, UniProt P09958); test: Furin enzyme assay; format: biochemical
T1 construct: Furin (108-574-Tev-Flag-His) enzyme was expressed and purified from CHO cells; TEV cleavage site (C); FLAG (C); His (C); made in house; host or cells: CHO cells
T1 sequence (P09958 108-574): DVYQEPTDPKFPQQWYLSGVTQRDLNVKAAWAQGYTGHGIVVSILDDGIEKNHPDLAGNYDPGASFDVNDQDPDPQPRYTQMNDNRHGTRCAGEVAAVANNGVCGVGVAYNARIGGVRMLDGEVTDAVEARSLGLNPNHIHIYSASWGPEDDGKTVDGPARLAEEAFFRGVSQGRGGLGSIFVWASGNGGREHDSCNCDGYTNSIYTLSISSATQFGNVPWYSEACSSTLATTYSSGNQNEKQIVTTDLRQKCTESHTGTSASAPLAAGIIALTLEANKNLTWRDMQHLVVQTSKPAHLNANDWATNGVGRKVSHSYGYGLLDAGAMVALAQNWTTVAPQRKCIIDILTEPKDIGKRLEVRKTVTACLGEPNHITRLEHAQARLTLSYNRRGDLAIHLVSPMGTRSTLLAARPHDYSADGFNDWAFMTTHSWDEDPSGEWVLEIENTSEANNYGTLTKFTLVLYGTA
How it was run: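 CHO-expressed, purified furin construct at 40 pM in 100 mM HEPES pH7.5, 1 mM CaCl2, 0.005% Triton X-100. Eleven-point 1:3 series, 0.00017–10 μM final, incubated 2 h at room temperature and read on Envision. pXC50 from four-parameter fit.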

[2] = biological target: T2, furin (endogenous protease) in U20S cells (Homo sapiens, UniProt P09958); test: Furin cell-based assay (image-based, Golgi-targeted GFP with BMP10 furin/PCSK cleavage site); settings: 24-hour incubation, read-out: furin golgi cell pXC50 (converted);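 note: Read-out is mean GFP fluorescence of Golgi puncta per cell by high-content imaging, retained when furin inhibited, over an eleven-point 0.00017–10 µM series, four-parameter fit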
T2 construct: the endogenous protease cleaves GFP; endogenous in cells; host or cells: U2OS cells transduced with a BacMam reporter
T2 sequence (P09958 108-794): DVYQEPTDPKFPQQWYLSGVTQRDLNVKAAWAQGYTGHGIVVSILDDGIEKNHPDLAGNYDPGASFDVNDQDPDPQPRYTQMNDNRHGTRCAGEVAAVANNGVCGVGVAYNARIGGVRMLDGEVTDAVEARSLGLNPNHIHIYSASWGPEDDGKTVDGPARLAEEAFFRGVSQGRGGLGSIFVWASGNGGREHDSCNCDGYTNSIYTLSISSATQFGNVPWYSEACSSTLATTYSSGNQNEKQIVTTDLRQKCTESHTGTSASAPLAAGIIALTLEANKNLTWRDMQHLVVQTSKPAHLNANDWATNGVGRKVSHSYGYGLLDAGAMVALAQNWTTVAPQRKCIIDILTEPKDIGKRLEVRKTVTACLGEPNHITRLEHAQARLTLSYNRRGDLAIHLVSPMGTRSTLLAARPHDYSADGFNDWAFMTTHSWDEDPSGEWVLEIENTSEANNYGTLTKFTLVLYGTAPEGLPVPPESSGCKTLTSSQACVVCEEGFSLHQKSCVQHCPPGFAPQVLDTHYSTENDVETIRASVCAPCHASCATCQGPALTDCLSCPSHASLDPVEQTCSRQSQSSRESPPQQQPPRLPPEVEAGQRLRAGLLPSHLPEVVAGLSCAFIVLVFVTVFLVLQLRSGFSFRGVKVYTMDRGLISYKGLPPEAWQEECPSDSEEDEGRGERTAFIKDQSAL

Structure (SMILES)	furin enzyme pIC50 [1]	EC50 [2]
CC(=O)N[C@H]1[C@@H]2CCN(Cc3cc(Oc4cnc(N5CCN(CCC(C)C(=O)O)CC5)nc4)nc(-c4cc(Cl)cc(Cl)c4)c3)CC[C@@H]21 (stereo partly drawn) [Example 82, 4-(4-(5-((4-(((1R,7S,8r)-8-acetamido-4-azabicyclo[5.1.0]octan-4-yl)methyl)-6-(3,5-dichlorophenyl)pyridin-2-yl)oxy)pyrimidin-2-yl)piperazin-1-yl)-2-methylbutanoic acid]	9.3	5.01 nM
CC(CCN1CCN(c2ncc(Oc3cc(CN4CCCC4)cc(-c4cc(Cl)cc(Cl)c4)n3)cn2)CC1)C(=O)O (centres unmarked) [Example 83, 4-(4-(5-((6-(3,5-dichlorophenyl)-4-(pyrrolidin-1-ylmethyl)pyridin-2-yl)oxy)pyrimidin-2-yl)piperazin-1-yl)-2-methylbutanoic acid]	8.9	50.1 nM
O=C(O)CCN1CCN(c2ncc(Oc3cc(CN4CCC(CNC(=O)C5CC5)CC4)cc(-c4cc(Cl)cc(Cl)c4)n3)cn2)CC1 [Example 84, 3-(4-(5-((4-((4-(cyclopropanecarboxamidomethyl)piperidin-1-yl)methyl)-6-(3,5-dichlorophenyl)pyridin-2-yl)oxy)pyrimidin-2-yl)piperazin-1-yl)propanoic acid]	9.3	7.94 nM
CP(C)(=O)CC1CCN(Cc2cc(Oc3ccc(N4CCN(CCC(=O)O)CC4)nc3)nc(-c3cc(Cl)cc(Cl)c3)c2)CC1 [Example 85, 3-(4-(5-((6-(3,5-dichlorophenyl)-4-((4-((dimethylphosphoryl)methyl)piperidin-1-yl)methyl)pyridin-2-yl)oxy)pyridin-2-yl)piperazin-1-yl)propanoic acid]	8.1	158 nM
NC(=O)CC1CCN(Cc2cc(Oc3cnc(N4CCNCC4)nc3)nc(-c3cc(Cl)cc(Cl)c3)c2)CC1 [Example 86, 2-(1-((2-(3,5-Dichlorophenyl)-6-((2-(piperazin-1-yl)pyrimidin-5-yl)oxy)pyridine-4-yl)methyl)piperidin-4-yl)acetamide, 4 hydrochloride]	8.9	10 nM
CN1CCN(c2ncc(Oc3cc(CN4CCC(CCS(N)(=O)=O)CC4)cc(-c4cc(Cl)cc(Cl)c4)n3)cn2)CC1 [Example 87, 2-(1-((2-(3,5-Dichlorophenyl)-6-((2-(4-methylpiperazin-1-yl)pyrimidin-5-yl)oxy)pyridin-4-yl)methyl)piperidin-4-yl)ethanesulfonamide, 4 hydrochloride]	9	3.98 nM
CC(=O)NCC1CCN(Cc2cc(Oc3cnc(N4CCN(CCC(N)=O)CC4)nc3)nc(-c3cc(Cl)cc(Cl)c3)c2)CC1 [Example 88, 3-(4-(5-((4-((4-(Acetamidomethyl)piperidin-1-yl)methyl)-6-(3,5-dichlorophenyl)pyridin-2-yl)oxy)pyrimidin-2-yl)piperazin-1-yl)propanamide]	9.1	5.01 nM
CC(=O)NCC1CCN(Cc2cc(Oc3ccc(N4CCNCC4)nc3)nc(-c3cc(Cl)cc(Cl)c3)n2)CC1 [Example 89, N-((1-((2-(3,5-Dichlorophenyl)-6-((6-(piperazin-1-yl)pyridin-3-yl)oxy)pyrimidin-4-yl)methyl)piperidin-4-yl)methyl)acetamide, 4 hydrochloride]	8	12.6 nM
CC(=O)NCC1CCN(Cc2cc(-c3cc(Cl)cc(Cl)c3)nc(Oc3ccc(N4CCNCC4)nc3)n2)CC1 [Example 90, N-((1-((6-(3,5-Dichlorophenyl)-2-((6-(piperazin-1-yl)pyridin-3-yl)oxy)pyrimidin-4-yl)methyl)piperidin-4-yl)methyl)acetamide]	8.5	7.94 nM
CC(=O)NCC1(O)CCN(Cc2cc(Oc3cnc(N4CCNCC4)c(F)c3)nc(-c3cc(Cl)cc(Cl)c3)c2)CC1 [Example 91, N-((1-((2-(3,5-Dichlorophenyl)-6-((5-fluoro-6-(piperazin-1-yl)pyridin-3-yl)oxy)pyridin-4-yl)methyl)-4-hydroxypiperidin-4-yl)methyl)acetamide, 4 hydrochloride]	8.4	39.8 nM
CC(=O)NCC1CCN(Cc2cc(Oc3cnc(N4CCNCC4)nc3)nc(-c3cc(Cl)cc(Cl)c3)c2)CC1 [Example 92, N-((1-((2-(3,5-Dichlorophenyl)-6-((2-(piperazin-1-yl)pyrimidin-5-yl)oxy)pyridin-4-yl)methyl)piperidin-4-yl)methyl)acetamide]	8.9	3.16 nM
CC(=O)NCC1CCN(Cc2cc(Oc3cnc(N4CCN(CCO)CC4)nc3)nc(-c3cc(Cl)cc(Cl)c3)c2)CC1 [Example 93, N-((1-((2-(3,5-dichlorophenyl)-6-((2-(4-(2-hydroxyethyl)piperazin-1-yl)pyrimidin-5-yl)oxy)pyridin-4-yl)methyl)piperidin-4-yl)methyl)acetamide, 4 hydrochloride]	8.9	5.01 nM
CNC(=O)CCN1CCN(c2ncc(Oc3cc(CN4CCC(CNC(C)=O)CC4)cc(-c4cc(Cl)cc(Cl)c4)n3)cn2)CC1 [Example 94, 3-(4-(5-((4-((4-(Acetamidomethyl)piperidin-1-yl)methyl)-6-(3,5-dichlorophenyl)pyridin-2-yl)oxy)pyrimidin-2-yl)piperazin-1-yl)-N-methylpropanamide, 4 hydrochloride]	8.9	5.01 nM
CC(=O)NCC1CCN(Cc2cc(Oc3cnc(N4CCN(C(C)CC(N)=O)CC4)nc3)nc(-c3cc(Cl)cc(Cl)c3)c2)CC1 (centres unmarked) [Example 95, 3-(4-(5-((4-((4-(Acetamidomethyl)piperidin-1-yl)methyl)-6-(3,5-dichlorophenyl)pyridin-2-yl)oxy)pyrimidin-2-yl)piperazin-1-yl)butanamide, 4 hydrochloride]	9.9	1.58 nM
CC(=O)NCC1CCN(Cc2cc(Oc3cnc(N4CCN(CCCC(N)=O)CC4)nc3)nc(-c3cc(Cl)cc(Cl)c3)c2)CC1 [Example 96, 4-(4-(5-((4-((4-(Acetamidomethyl)piperidin-1-yl)methyl)-6-(3,5-dichlorophenyl)pyridin-2-yl)oxy)pyrimidin-2-yl)piperazin-1-yl)butanamide]	9	1.58 nM
CNC1CCN(c2ccc(Oc3cc(CNCCOC)cc(-c4cc(Cl)cc(Cl)c4)c3)cn2)CC1 [Example 97, 1-(5-((3′,5′-Dichloro-5-(((2-methoxyethyl)amino)methyl)-[1,1′-biphenyl]-3-yl)oxy)pyridin-2-yl)-N-methylpiperidin-4-amine]	8.4	25.1 nM
CNCc1cc(Oc2ccc(N3CCNCC3)nc2)cc(-c2cc(Cl)cc(Cl)c2)c1 [Example 98, 1-(3′,5′-Dichloro-5-((6-(piperazin-1-yl)pyridin-3-yl)oxy)-[1,1′-biphenyl]-3-yl)-N-methylmethanamine, 3 hydrochloride]	8.7	39.8 nM

Now from value to compound:

furin enzyme pIC50 [1]	EC50 [2]	Structure (SMILES)
7.2	251 nM	NCCNc1ccc(Oc2cc(CN3CCOCC3)cc(-c3cc(Cl)cc(Cl)c3)c2)cn1 [Example 99, N^1-(5-((3′,5′-Dichloro-5-(morpholinomethyl))-[1,1′-biphenyl]-3-yl)oxy)pyridin-2-yl)ethane-1,2-diamine, 3 hydrochloride]
8.8	79.4 nM	CNCc1cc(Oc2ccc(N3CCC(N)CC3)nc2)cc(-c2cc(Cl)cc(Cl)c2)c1 [Example 100, 1-(5-((3′,5′-Dichloro-5-((methylamino)methyl)-[1,1′-biphenyl]-3-yl)oxy)pyridin-2-yl)piperidin-4-amine, 3 hydrochloride]
8.6	3160 nM	CNCc1cc(Oc2ccc(NCCCN)nc2)cc(-c2cc(Cl)cc(Cl)c2)c1 [Example 101, N^1-(5-((3′,5′-Dichloro-5-((methylamino)methyl)-[1,1′-biphenyl]-3-yl)oxy)pyridin-2-yl)propane-1,3-diamine]
9.2	15.8 nM	CNCc1cc(Oc2ccc(N3CCNC(C)(C)C3)nc2)cc(-c2cc(Cl)cc(Cl)c2)c1 [Example 102, 1-(3′,5′-Dichloro-5-((6-(3,3-dimethylpiperazin-1-yl)pyridin-3-yl)oxy)-[1,1′-biphenyl]-3-yl)-N-methylmethanamine, 3 hydrochloride]
8.9	63.1 nM	CNCc1cc(Oc2ccc(N3CCCNCC3)nc2)cc(-c2cc(Cl)cc(Cl)c2)c1 [Example 103]
8.5	25.1 nM	CNCc1cc(Oc2ccc(N3CCN(C)CC3)nc2)cc(-c2cc(Cl)cc(Cl)c2)c1 [Example 104, 1-(3′,5′-dichloro-5-((6-(4-methylpiperazin-1-yl)pyridin-3-yl)oxy)-[1,1′-biphenyl]-3-yl)-N-methylmethanamine]
9	126 nM	CC(=O)NCC1CCN(Cc2cc(Oc3ccc(NCC(C)(C)N)nc3)cc(-c3cc(Cl)cc(Cl)c3)c2)CC1 [Example 105, N-((1-((5-((6-((2-Amino-2-methylpropyl)amino)pyridin-3-yl)oxy)-3′,5′-dichloro-[1,1′-biphenyl]-3-yl)methyl)piperidin-4-yl)methyl)acetamide, 3 hydrochloride]
9.4	3.16 nM	CC(=O)NCC1CCN(Cc2cc(Oc3ccc(N4CC[C@@H](N)[C@@H](F)C4)nc3)cc(-c3cc(Cl)cc(Cl)c3)c2)CC1 [Example 106, N-((1-((5-((6-((r/3)-4-Amino-3-fluoropiperidin-1-yl)pyridin-3-yl)oxy)-3′,5′-dichloro-[1,1′-biphenyl]-3-yl)methyl)piperidin-4-yl)methyl)acetamide, 3 hydrochloride]
